Some results are limits rather than exact numbers.

In this assay the target is H1047R PIK3CA enzyme (Homo sapiens, UniProt P42336, H1047R). Briefly: ADP-Glo Biochemical PIK3CA Kinase Assay.
H1047R PIK3CA enzyme, sequence (P42336 whole entry H1047R): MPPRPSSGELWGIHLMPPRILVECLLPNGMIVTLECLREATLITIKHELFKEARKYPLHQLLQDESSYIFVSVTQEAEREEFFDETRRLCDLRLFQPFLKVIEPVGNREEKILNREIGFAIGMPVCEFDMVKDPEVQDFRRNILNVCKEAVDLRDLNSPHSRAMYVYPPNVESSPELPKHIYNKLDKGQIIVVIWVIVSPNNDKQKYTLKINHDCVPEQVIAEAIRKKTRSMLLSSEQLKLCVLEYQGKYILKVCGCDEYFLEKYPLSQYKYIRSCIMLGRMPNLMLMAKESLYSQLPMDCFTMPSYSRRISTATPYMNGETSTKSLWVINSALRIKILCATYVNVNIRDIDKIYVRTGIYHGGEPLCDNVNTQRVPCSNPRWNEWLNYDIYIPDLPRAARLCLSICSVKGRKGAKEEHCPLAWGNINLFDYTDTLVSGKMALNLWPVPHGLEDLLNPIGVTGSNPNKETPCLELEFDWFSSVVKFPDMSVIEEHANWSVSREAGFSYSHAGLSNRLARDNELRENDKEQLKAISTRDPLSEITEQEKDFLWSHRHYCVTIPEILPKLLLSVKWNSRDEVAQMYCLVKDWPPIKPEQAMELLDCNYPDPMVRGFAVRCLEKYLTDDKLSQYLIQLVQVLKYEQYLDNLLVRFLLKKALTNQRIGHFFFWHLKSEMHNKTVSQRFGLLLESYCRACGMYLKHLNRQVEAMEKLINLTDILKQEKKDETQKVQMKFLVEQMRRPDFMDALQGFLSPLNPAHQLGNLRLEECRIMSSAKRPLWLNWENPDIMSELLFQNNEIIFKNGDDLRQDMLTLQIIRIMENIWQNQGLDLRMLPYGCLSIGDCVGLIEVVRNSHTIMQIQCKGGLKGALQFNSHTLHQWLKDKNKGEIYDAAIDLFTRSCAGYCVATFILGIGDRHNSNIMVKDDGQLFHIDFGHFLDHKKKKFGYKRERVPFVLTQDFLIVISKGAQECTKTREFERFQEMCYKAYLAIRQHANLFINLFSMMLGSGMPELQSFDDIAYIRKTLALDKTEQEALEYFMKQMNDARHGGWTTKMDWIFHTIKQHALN
H1047R PIK3CA enzyme, sequence (P27986 whole entry partner): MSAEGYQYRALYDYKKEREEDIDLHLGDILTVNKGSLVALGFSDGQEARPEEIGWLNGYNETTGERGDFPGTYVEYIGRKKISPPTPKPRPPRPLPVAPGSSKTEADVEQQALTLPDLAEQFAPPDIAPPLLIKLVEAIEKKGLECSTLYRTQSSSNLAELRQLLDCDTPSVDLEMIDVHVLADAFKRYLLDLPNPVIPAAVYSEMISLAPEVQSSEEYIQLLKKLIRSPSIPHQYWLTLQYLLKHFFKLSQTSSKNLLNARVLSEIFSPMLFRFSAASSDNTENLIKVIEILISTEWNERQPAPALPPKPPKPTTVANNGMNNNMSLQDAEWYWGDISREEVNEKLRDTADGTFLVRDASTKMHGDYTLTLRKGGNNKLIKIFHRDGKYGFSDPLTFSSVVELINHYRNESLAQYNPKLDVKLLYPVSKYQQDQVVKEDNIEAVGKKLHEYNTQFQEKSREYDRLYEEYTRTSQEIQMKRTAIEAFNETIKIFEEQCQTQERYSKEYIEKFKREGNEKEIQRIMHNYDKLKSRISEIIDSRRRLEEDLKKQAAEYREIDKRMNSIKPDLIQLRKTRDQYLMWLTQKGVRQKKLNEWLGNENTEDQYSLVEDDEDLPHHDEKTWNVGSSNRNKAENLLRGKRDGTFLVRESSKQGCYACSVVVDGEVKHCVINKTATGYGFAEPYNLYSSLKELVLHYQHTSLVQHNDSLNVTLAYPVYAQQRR
One may read the IC50 as the concentration that inhibits the measured activity by half. Consider `Cc1ccccc1C1NCc2cccc(NC(=O)c3nsc4ccccc34)c21` (stereo not shown) [Compound I-201], for which the IC50 fell in the range of 1 to 10 µM.
Take `O=C1CC(c2cc(NC(=O)c3cc(F)cc(C(F)(F)F)c3)c3c(c2)C(=O)NC3c2cc(F)ccc2Cl)CN1` (stereo not shown) [Compound I-1360]: the IC50 was ≤ 0.1 µM.
`Cn1ccnc1-c1cc(NC(=O)c2cc(F)cc(C(F)(F)F)c2)c2c(c1)C(=O)NC2c1cc(F)ccc1Cl` (racemic) [Compound I-1193] yielded an IC50 of 0.1 to 0.5 µM.
Under `O=C(Nc1cccc2c1C(c1cccc3ccccc13)NC2=O)c1cc(F)cc(C(F)(F)F)c1` (stereo not shown) [Compound I-431] stands 1 to 10 µM.
Under `O=C(Nc1cccc2c1C(c1cc(F)ccc1Cl)NC2=O)c1ccccc1` (stereo not shown) [Compound I-1681] stands 10 to 100 µM; under `Cc1ccccc1C1NC(=O)c2cc(CO)cc(NC(=O)c3cc(F)cc(C(F)(F)F)c3)c21` (stereo not shown) [Compound I-473], ≤ 0.1 µM.
`CC(O)C(CC(=O)Nc1cccc2c1C(c1cc(F)ccc1Cl)NC2=O)C(C)C(F)(F)F` (stereo not shown) [Compound I-2198]: the IC50 lay within 10 to 100 µM.
Consider `O=C1N[C@@H](c2cc(F)ccc2Cl)c2c(NC(=O)[C@H]3CC(C(F)(F)F)C[C@@H](O)C3)cc(Br)cc21` (single isomer, unassigned) [Compound I-2152], for which the IC50 was 1 to 10 µM.
Under `O=C(Nc1cc(/N=C2\OC[C@H]3CCCN23)cc2c1C(c1cc(F)ccc1Cl)NC2=O)c1cc(F)cc(C(F)(F)F)c1` (stereo partly shown) [Compound I-2354] stands 0.1 to 0.5 µM; under `O=C1N[C@H](c2cc(F)ccc2Cl)c2c(NC(=O)N3CCC[C@](O)(C(F)(F)F)C3)cccc21` (single isomer, unassigned) [Compound I-2114], 10 to 100 µM.
`O=C1NC(c2cc(F)ccc2Cl)c2c(NC(=O)[C@@H](O)c3cc(F)cc(F)c3)cc(Br)cc21` (single isomer, unassigned) [Compound I-803] returned an IC50 of 10 to 100 µM.
As for `O=C1NC(c2cc(F)ccc2Cl)c2c(NC(=O)N3CCCC4CCCC43)cc(Br)cc21` (stereo not shown) [Compound I-722], the IC50 is 0.1 to 0.5 µM.
For `O=C1NC(c2cc(F)ccc2Cl)c2c(NC(=O)N3CCc4ccccc4C3)cccc21` (stereo not shown) [Compound I-2307] the value was 10 to 100 µM; for `O=C(Nc1cccc2c1C(c1cccc3c1NCC3)NC2=O)c1cc(F)cc(C(F)(F)F)c1` (stereo not shown) [Compound I-660], 10 to 100 µM; for `O=C(Nc1cc(C(O)C2(O)COC2)cc2c1C(c1cc(F)ccc1Cl)NC2=O)c1cc(F)cc(C(F)(F)F)c1` (stereo not shown) [Compound I-1337], 0.1 to 0.5 µM.
For `O=C1NC(c2cccc(F)c2F)c2c(NC(=O)c3nsc4ccccc34)ccnc21` (stereo not shown) [Compound I-175] the value was 0.5 to 1 µM; for `Cc1ccccc1C1NC(=O)c2cccc(NC(=O)c3noc4ccccc34)c21` (stereo not shown) [Compound I-41], 10 to 100 µM; for `O=C(Nc1cccc2c1[C@H]([C@@H]1COCCN1)NC2=O)c1cc(F)cc(C(F)(F)F)c1` (racemic) [Compound I-1901], 10 to 100 µM.
Consider `Cn1nc(C(F)F)cc1-c1cc(NC(=O)c2cc(F)cc(C(F)(F)F)c2)c2c(c1)C(=O)N[C@H]2c1cc(F)ccc1Cl` [Compound I-1881], for which the IC50 is ≤ 0.1 µM.
For the compound `Cc1ncc(-c2cc(NC(=O)c3cc(F)cc(Cl)c3)c3c(c2)C(=O)N[C@H]3c2cc(F)ccc2Cl)cn1` [Compound I-896], the IC50 is ≤ 0.1 µM.
For the compound `O=C1N[C@H](c2cc(F)ccc2Cl)c2c(NC(=O)c3nsc4ccccc34)cc(-c3ccc4ncnn4c3)cc21` (stereo in doubt) [Compound I-1830], the IC50 was in the range of 1 to 10 µM.
On to `O=C(Nc1cc(OC2CC(O)C2)cc2c1C(c1cc(F)ccc1Cl)NC2=O)c1cc(F)cc(C(F)(F)F)c1` (stereo not shown) [Compound I-1132], for which the IC50 was 0.1 to 0.5 µM.
In turn, `O=C1NC(c2cc(F)ccc2Cl)c2c(NC(=O)C3CCCC(O)C3)cc(-c3ccc4ncnn4c3)cc21` (stereo not shown) [Compound I-1723] had an IC50 of 10 to 100 µM.
Under `N#Cc1cnn(-c2cc(NC(=O)N3C[C@@H](O)c4cc(F)ccc43)c3c(c2)C(=O)N[C@H]3c2cc(F)ccc2Cl)c1` (single isomer, unassigned) [Compound I-2405] stands ≤ 0.1 µM.
`O=C(Nc1cc(-c2ccc3nnnn3c2)cc2c1[C@@H](c1cc(F)ccc1Cl)NC2=O)c1cc(F)cc(C(F)(F)F)c1` [Compound I-1452] yielded an IC50 of 1 to 10 µM.
Compound `C[C@H]([C@H]1C[C@H](O)CN1C(=O)Nc1cccc2c1[C@H](c1cc(F)ccc1Cl)NC2=O)C(F)(F)F` (single isomer, unassigned) [Compound I-2379] had an IC50 of 10 to 100 µM.
Regarding `CN(C)S(=O)(=O)Cc1cc(NC(=O)c2cc(F)cc(C(F)(F)F)c2)c2c(c1)C(=O)N[C@@H]2c1cc(F)ccc1Cl` [Compound I-1488], the IC50 lay in the range of 1 to 10 µM.
Regarding `Cc1ccccc1C1NC(=O)c2cccc(NC(=O)c3cc(F)cc(C(F)F)c3)c21` (stereo not shown) [Compound I-112], the IC50 lay in the range of 1 to 10 µM.
As to `NS(=O)(=O)Cc1cc(NC(=O)c2cc(F)cc(C(F)(F)F)c2)c2c(c1)C(=O)N[C@H]2c1cc(F)ccc1Cl` [Compound I-1480], the IC50 is ≤ 0.1 µM.
`O=C(Nc1cc(-c2cnn(C(F)F)c2)cc2c1[C@@H](c1cc(F)ccc1Cl)NC2=O)c1cc(F)cc(C(F)(F)F)c1` (single isomer, unassigned) [Compound I-1739] returned an IC50 of 1 to 10 µM.
For `Nc1csnc1C(=O)Nc1cc(Br)cc2c1C(c1cc(F)ccc1Cl)NC2=O` (stereo not shown) [Compound I-1425] the value was 10 to 100 µM; for `O=C1N[C@@H](c2cc(F)ccc2Cl)c2c(NC(=O)N3C[C@](O)(C(F)(F)F)c4cc(F)ccc43)cc(-n3ncccc3=O)cc21` (single isomer, unassigned) [Compound I-2533], 1 to 10 µM; for `O=C(Nc1cc(-c2cnn(-c3ncccn3)c2)cc2c1C(c1cc(F)ccc1Cl)NC2=O)c1cc(F)cc(C(F)(F)F)c1` (single isomer, unassigned) [Compound I-1554], 1 to 10 µM.
For `Cc1ccccc1[C@@H]1NC(=O)c2cc(N)cc(NC(=O)c3cc(F)cc(C(F)(F)F)c3)c21` [Compound I-66] the value was ≤ 0.1 µM; for `O=C1N[C@H](c2cc(F)ccc2Cl)c2c(NC(=O)[C@H]3C[C@@H](O)C[C@@H](C(F)(F)F)C3)cc(Br)cc21` (single isomer, unassigned) [Compound I-2272], 10 to 100 µM.
Compound `C[C@@H](C#N)Cn1cc(-c2cc(NC(=O)N3C[C@@H](O)c4cc(F)ccc43)c3c(c2)C(=O)N[C@@H]3c2cc(F)ccc2Cl)cn1` (single isomer, unassigned) [Compound I-2504] came in with an IC50 of 1 to 10 µM.
`NC(=O)Cn1nc(Nc2cc(-c3ccc4ncnn4c3)cc3c2C(c2cc(F)ccc2Cl)NC3=O)c2ccccc21` (stereo not shown) [Compound I-1806]: the IC50 fell in the range of 1 to 10 µM.
As for `CNC(=O)c1cc(NC(=O)c2cc(F)cc(C(F)(F)F)c2)c2c(c1)C(=O)N[C@H]2c1ccccc1C` [Compound I-212], the IC50 was ≤ 0.1 µM.
Regarding `CC(c1nn[nH]c1C(=O)Nc1cccc2c1C(c1cc(F)ccc1Cl)NC2=O)C(F)(F)F` (mixture of isomers) [Compound I-2180], the IC50 was in the range of 10 to 100 µM.
`O=C1NC(c2cc(F)ccc2Cl)c2c(NC(=O)C3(O)CCCC(C(F)(F)F)C3)cccc21` (mixture of isomers) [Compound I-2088]: the IC50 lay in the range of 10 to 100 µM.
In turn, `CC(C)(CNC(=O)Nc1cc(Br)cc2c1C(c1cc(F)ccc1Cl)NC2=O)C1(O)CCC1` (stereo not shown) [Compound I-1507] had an IC50 of 10 to 100 µM.
The compound `Cc1ccccc1C1NC(=O)c2cccc(NC(=O)c3nsc4ccc(Br)cc34)c21` (stereo not shown) [Compound I-376] registered an IC50 of 0.5 to 1 µM.
Compound `CC1(C)COC(Nc2cc(NC(=O)c3cc(F)cc(C(F)(F)F)c3)c3c(c2)C(=O)NC3c2cc(F)ccc2Cl)=N1` (stereo not shown) [Compound I-2358] came in with an IC50 of 0.1 to 0.5 µM.
Turning to `Cc1ccccc1[C@@H]1NC(=O)c2c(C(N)=O)ccc(NC(=O)c3cc(F)cc(C(F)(F)F)c3)c21` [Compound I-508], the IC50 is ≤ 0.1 µM.
`CSc1nc(NC(=O)c2cc(F)cc(C(F)(F)F)c2)c2c(n1)C(=O)NC2c1ccccc1Cl` (stereo not shown) [Compound I-183] showed an IC50 of 1 to 10 µM.
In turn, `O=C1N[C@H](c2cc(F)ccc2Cl)c2c(NC(=O)N3C[C@@H](O)c4cc(F)ccc43)cc(-c3cnn(C(F)F)c3)cc21` (single isomer, unassigned) [Compound I-2476] yielded an IC50 of 10 to 100 µM.
Under `O=C(Nc1cc(-c2ccn3nc(C4CC4)nc3c2)cc2c1C(c1cc(F)ccc1Cl)NC2=O)c1cc(F)cc(C(F)(F)F)c1` (stereo not shown) [Compound I-1651] stands ≤ 0.1 µM.
`Cc1ccc2c(c1)CCN2C(=O)Nc1cccc2c1C(c1cc(F)ccc1Cl)NC2=O` (stereo not shown) [Compound I-2440] showed an IC50 of 10 to 100 µM.
`O=C(Nc1cccc2c1C(C1CC1)NC2=O)c1cc(F)cc(C(F)(F)F)c1` (stereo not shown) [Compound I-259] returned an IC50 of 10 to 100 µM.
For `CN1CCN(C(=O)Nc2cc(Br)cc3c2[C@H](c2cc(F)ccc2Cl)NC3=O)CC1(C)C` (single isomer, unassigned) [Compound I-2240] the value was 10 to 100 µM.
`O=C1N[C@@H](c2cc(F)ccc2Cl)c2c(NC(=O)N3C[C@@](O)(C(F)(F)F)c4cc(F)ccc43)cc(N3CCCC3=O)cc21` (single isomer, unassigned) [Compound I-2667] registered an IC50 of 1 to 10 µM.
On to `O=C(Nc1cccc2c1C1(CCc3ccccc31)NC2=O)c1cc(F)cc(C(F)(F)F)c1` (stereo not shown) [Compound I-188], for which the IC50 is 10 to 100 µM.
Regarding `CC(C)(O)CNc1cc(NC(=O)c2cc(F)cc(C(F)(F)F)c2)c2c(c1)C(=O)N[C@H]2c1cc(F)ccc1Cl` [Compound I-899], the IC50 was 10 to 100 µM.
With `Cc1ccc(F)cc1[C@@H]1NC(=O)c2cc(Br)cc(NC(=O)c3cc(F)cc(C(F)(F)F)c3)c21` [Compound I-758], the IC50 was ≤ 0.1 µM.
Take `CC(=O)Cc1cc(NC(=O)c2cc(F)cc(C(F)(F)F)c2)c2c(c1)C(=O)N[C@H]2c1cc(F)ccc1Cl` [Compound I-624]: the IC50 was 0.1 to 0.5 µM.
Compound `CNc1cc(NC(=O)N2C[C@@](O)(C(F)F)c3cc(F)ccc32)c2c(c1)C(=O)N[C@@H]2c1cc(F)ccc1Cl` (single isomer, unassigned) [Compound I-2679] registered an IC50 of 10 to 100 µM.
`CC(C)n1cc(-c2cc(NC(=O)c3cc(F)cc(C(F)(F)F)c3)c3c(c2)C(=O)NC3c2cc(F)ccc2Cl)ccc1=O` (stereo not shown) [Compound I-699]: the IC50 was ≤ 0.1 µM.
Turning to `Cn1cc(C(=O)Nc2cccc3c2CNC3=O)c2ccccc21` [Compound I-403], the IC50 lay within 10 to 100 µM.

The record behind these values is patent US12581252B2, “Substituted pyrrolo[3,4-b]pyridines as PI3K-α inhibitors” (Relay Therapeutics, Inc., priority 2020, dated 2026).
